Legend:
B. subtilis 168 [1] = test: fitness (endpoint OD595 vs no drug) (fraction); higher = more growth
In short: (§1)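 Cultures at OD595 0.01 were dispensed into 384-well plates in TSB, LB Lennox or CY and incubated at 37 °C. Every 30 min for 14 h, OD595 was read and corrected by the first reading. Fitness is the optical density at entry into stationary phase relative to the robust mean of no-drug control wells, capped at 1.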

S. aureus Newman [2] = test: as above
In short: as §1

S. pneumoniae D39V [3] = test: as above
In short: as §1

B. subtilis 168 [4] = test: Bliss interaction score (quartile over a dose matrix) (fitness difference); higher = more antagonism (negative = synergy)
In short: (§2)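 The Bliss score was calculated by subtracting the expected fitness, the product of single-drug values, from the observed fitness. OD595 at entry into stationary phase, over the plate's robust no-drug mean and capped at 1, served as the fitness readout. Single-drug values were inferred from combination data, and scores are summarised by quartiles across technical, biological and donor/recipient replicates.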

S. aureus DSM 20231 = test: as above
In short: as §2

S. aureus Newman [5] = test: as above
In short: as §2

S. pneumoniae D39V [6] = test: as above
In short: as §2

[7] = first compound 2 µg/mL, partner 0.0625 µg/mL
[8] = first compound 2 µg/mL, partner 0.125 µg/mL
[9] = first compound 2 µg/mL, partner 0.25 µg/mL
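Wherever Bliss interaction score (quartile over a dose matrix) is given: first quartile when negative (synergy) and third quartile when positive (antagonism).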

## CN[C@@H]1[C@H](O[C@H]2[C@H](O[C@H]3[C@H](O)[C@@H](O)[C@H](N=C(N)N)[C@@H](O)[C@@H]3N=C(N)N)O[C@@H](C)[C@]2(O)C=O)O[C@@H](CO)[C@H](O)[C@H]1O [Streptomycin] + CC1=C\[C@@H](O)CC(=O)Cc2nc(co2)C(=O)N2CCC=C2C(=O)O[C@H](C(C)C)[C@H](C)/C=C/C(=O)NC\C=C\1 [Virginiamycin M1]
B. subtilis 168 [1]; [7]
  fitness: 0.962
B. subtilis 168 [1]; [8]
  fitness: 0.966
B. subtilis 168 [1]; [9]
  fitness: ≥ 1
B. subtilis 168 [1]; first compound 4 µg/mL, partner 0.125 µg/mL
  fitness: 0.429
B. subtilis 168 [1]; first compound 4 µg/mL, partner 0.25 µg/mL
  fitness: 0.453
B. subtilis 168 [1]; first compound 8 µg/mL, partner 0.0625 µg/mL
  fitness: 0.0325
B. subtilis 168 [1]; first compound 8 µg/mL, partner 0.125 µg/mL
  fitness: 0.0265
B. subtilis 168 [1]; first compound 8 µg/mL, partner 0.25 µg/mL
  fitness: 0.0334
S. aureus Newman [2]; first compound 1 µg/mL, partner 0.0625 µg/mL
  fitness: 1
S. aureus Newman [2]; first compound 1 µg/mL, partner 0.125 µg/mL
  fitness: 0.996
S. aureus Newman [2]; first compound 1 µg/mL, partner 0.25 µg/mL
  fitness: 0.978
S. aureus Newman [2]; [7]
  fitness: 0.879
S. aureus Newman [2]; [8]
  fitness: 0.891
S. aureus Newman [2]; [9]
  fitness: 0.916
S. aureus Newman [2]; first compound 2 µg/mL, partner 0.5 µg/mL, one replicate
  fitness: 0.804
S. aureus Newman [2]; first compound 2 µg/mL, partner 1 µg/mL, one replicate
  fitness: 0.911
S. aureus Newman [2]; first compound 2 µg/mL, partner 2 µg/mL, one replicate
  fitness: 0.812
S. aureus Newman [2]; first compound 4 µg/mL, partner 0.5 µg/mL, one replicate
  fitness: 0.865
S. aureus Newman [2]; first compound 4 µg/mL, partner 1 µg/mL, one replicate
  fitness: 0.86
S. aureus Newman [2]; first compound 4 µg/mL, partner 2 µg/mL, one replicate
  fitness: 0.82
S. aureus Newman [2]; first compound 8 µg/mL, partner 0.5 µg/mL, one replicate
  fitness: 0.811
S. aureus Newman [2]; first compound 8 µg/mL, partner 1 µg/mL, one replicate
  fitness: 0.845
S. aureus Newman [2]; first compound 8 µg/mL, partner 2 µg/mL, one replicate
  fitness: 0.708
S. pneumoniae D39V [3]; first compound 2 µg/mL, partner 0.15 µg/mL, one replicate
  fitness: 0.928
S. pneumoniae D39V [3]; first compound 2 µg/mL, partner 0.3 µg/mL, one replicate
  fitness: 0.912
S. pneumoniae D39V [3]; first compound 2 µg/mL, partner 0.5 µg/mL
  fitness: 0.977
S. pneumoniae D39V [3]; first compound 2 µg/mL, partner 1 µg/mL
  fitness: 0.955
S. pneumoniae D39V [3]; first compound 2 µg/mL, partner 2 µg/mL
  fitness: 0.917
S. pneumoniae D39V [3]; first compound 4 µg/mL, partner 0.15 µg/mL, one replicate
  fitness: 0.925
S. pneumoniae D39V [3]; first compound 4 µg/mL, partner 0.3 µg/mL, one replicate
  fitness: 0.929
S. pneumoniae D39V [3]; first compound 4 µg/mL, partner 0.5 µg/mL
  fitness: 0.998
S. pneumoniae D39V [3]; first compound 4 µg/mL, partner 1 µg/mL
  fitness: 0.99
S. pneumoniae D39V [3]; first compound 4 µg/mL, partner 2 µg/mL
  fitness: 0.944
S. pneumoniae D39V [3]; first compound 8 µg/mL, partner 0.15 µg/mL, one replicate
  fitness: 0.917
S. pneumoniae D39V [3]; first compound 8 µg/mL, partner 0.3 µg/mL, one replicate
  fitness: 0.941
S. pneumoniae D39V [3]; first compound 8 µg/mL, partner 0.5 µg/mL
  fitness: 0.931
S. pneumoniae D39V [3]; first compound 8 µg/mL, partner 1 µg/mL
  fitness: 0.884
S. pneumoniae D39V [3]; first compound 8 µg/mL, partner 2 µg/mL
  fitness: 0.921
S. pneumoniae D39V [3]; first compound 16 µg/mL, partner 0.5 µg/mL, one replicate
  fitness: 0.866
S. pneumoniae D39V [3]; first compound 16 µg/mL, partner 1 µg/mL, one replicate
  fitness: 0.844
S. pneumoniae D39V [3]; first compound 16 µg/mL, partner 2 µg/mL, one replicate
  fitness: 0.776
B. subtilis 168 [4]
  Bliss interaction score: -0.124
S. aureus DSM 20231
  Bliss interaction score: -0.161
S. aureus Newman [5]
  Bliss interaction score: 0.0782
S. pneumoniae D39V [6]
  Bliss interaction score: 0.0533
